Assay results published in PMC6199744, “Development of Chemical Proteomics for the Folateome and Analysis of the Kinetoplastid Folateome” (ACS Infectious Diseases, 2018).
Read-outs that look alike come from different tables or passages of the source.

Experiments:
Assay type in all cases: binding
[1] = molecular target: T1, HeLa cell extract proteins (Homo sapiens, UniProt P61081); conditions: protein UBE2M; HeLa
T1 construct: endogenous in cells; host or cells: HeLa cell extract
T1 sequence (P61081 1-183): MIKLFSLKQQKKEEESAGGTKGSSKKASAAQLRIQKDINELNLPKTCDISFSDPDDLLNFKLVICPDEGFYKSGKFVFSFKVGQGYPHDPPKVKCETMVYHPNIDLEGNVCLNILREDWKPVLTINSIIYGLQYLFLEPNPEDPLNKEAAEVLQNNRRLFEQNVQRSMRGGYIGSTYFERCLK

[2] = molecular target: T2, HeLa cell extract proteins (Homo sapiens, UniProt P46782); conditions: protein RPS5; HeLa
T2 construct: endogenous in cells; host or cells: HeLa cell extract

[3] = molecular target: T3, HeLa cell extract proteins (Homo sapiens, UniProt P60953); conditions: protein CDC42; HeLa
T3 construct: endogenous in cells; host or cells: HeLa cell extract
T3 sequence (P60953 whole entry): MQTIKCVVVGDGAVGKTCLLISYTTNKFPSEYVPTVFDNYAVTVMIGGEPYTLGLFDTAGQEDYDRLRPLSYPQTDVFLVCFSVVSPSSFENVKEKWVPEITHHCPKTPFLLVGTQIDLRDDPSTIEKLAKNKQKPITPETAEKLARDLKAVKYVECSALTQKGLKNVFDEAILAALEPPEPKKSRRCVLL

[4] = molecular target: T4, HeLa cell extract proteins (Homo sapiens, UniProt Q9UJ70); conditions: captured protein NAGK; HeLa
T4 construct: endogenous in cells; host or cells: HeLa cell extract
T4 sequence (Q9UJ70 whole entry): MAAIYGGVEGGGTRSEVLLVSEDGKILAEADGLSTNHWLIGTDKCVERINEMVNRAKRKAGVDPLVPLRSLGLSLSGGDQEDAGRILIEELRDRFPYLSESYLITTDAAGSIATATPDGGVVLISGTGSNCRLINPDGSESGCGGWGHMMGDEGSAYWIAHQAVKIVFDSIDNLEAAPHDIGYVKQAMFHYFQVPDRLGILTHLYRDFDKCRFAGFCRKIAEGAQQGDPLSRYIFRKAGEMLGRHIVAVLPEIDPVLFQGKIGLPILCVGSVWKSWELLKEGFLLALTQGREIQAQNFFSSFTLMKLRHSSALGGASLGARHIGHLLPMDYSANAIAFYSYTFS

[5] = molecular target: T5, HeLa cell extract proteins (Homo sapiens, UniProt P26368); conditions: protein U2AF2; HeLa
T5 construct: endogenous in cells; host or cells: HeLa cell extract
T5 sequence (P26368 whole entry): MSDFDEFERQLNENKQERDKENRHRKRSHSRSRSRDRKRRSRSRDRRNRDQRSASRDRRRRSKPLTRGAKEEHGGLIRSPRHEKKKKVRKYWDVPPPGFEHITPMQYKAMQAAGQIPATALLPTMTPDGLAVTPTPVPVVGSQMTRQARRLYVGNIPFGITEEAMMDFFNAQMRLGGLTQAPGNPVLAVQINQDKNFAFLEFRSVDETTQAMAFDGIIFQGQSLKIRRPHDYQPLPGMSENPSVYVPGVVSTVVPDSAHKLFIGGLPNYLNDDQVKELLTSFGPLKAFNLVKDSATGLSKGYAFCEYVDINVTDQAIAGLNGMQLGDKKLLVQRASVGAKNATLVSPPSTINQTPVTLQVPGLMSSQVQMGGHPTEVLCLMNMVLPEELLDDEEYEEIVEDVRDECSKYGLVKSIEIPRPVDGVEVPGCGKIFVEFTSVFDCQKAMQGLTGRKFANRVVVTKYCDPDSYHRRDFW

[6] = molecular target: T6, HeLa cell extract proteins (Homo sapiens, UniProt O75600); conditions: protein GCAT; HeLa
T6 construct: endogenous in cells; host or cells: HeLa cell extract
T6 sequence (O75600 22-419): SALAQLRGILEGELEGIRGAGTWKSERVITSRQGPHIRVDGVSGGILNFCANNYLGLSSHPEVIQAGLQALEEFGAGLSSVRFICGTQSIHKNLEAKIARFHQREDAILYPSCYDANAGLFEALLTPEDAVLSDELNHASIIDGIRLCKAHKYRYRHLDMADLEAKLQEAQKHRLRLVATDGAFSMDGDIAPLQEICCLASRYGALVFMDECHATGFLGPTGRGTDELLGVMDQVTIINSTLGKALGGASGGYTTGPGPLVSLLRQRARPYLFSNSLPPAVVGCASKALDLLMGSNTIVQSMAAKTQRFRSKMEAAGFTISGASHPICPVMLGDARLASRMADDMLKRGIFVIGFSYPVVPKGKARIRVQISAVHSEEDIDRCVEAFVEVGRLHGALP

[7] = molecular target: T7, HeLa cell extract proteins (Homo sapiens, UniProt O00767); conditions: captured protein SCD; HeLa
T7 construct: endogenous in cells; host or cells: HeLa cell extract
T7 sequence (O00767 1-359): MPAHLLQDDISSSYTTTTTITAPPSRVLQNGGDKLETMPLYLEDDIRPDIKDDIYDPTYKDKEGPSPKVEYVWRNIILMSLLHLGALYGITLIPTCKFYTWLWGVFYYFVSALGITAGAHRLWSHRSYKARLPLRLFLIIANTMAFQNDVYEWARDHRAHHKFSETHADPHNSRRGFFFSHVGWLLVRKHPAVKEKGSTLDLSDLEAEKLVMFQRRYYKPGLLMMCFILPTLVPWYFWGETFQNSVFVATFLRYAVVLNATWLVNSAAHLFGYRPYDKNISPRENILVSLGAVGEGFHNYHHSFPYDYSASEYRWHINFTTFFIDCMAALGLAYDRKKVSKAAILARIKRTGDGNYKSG

[8] = molecular target: T8, HeLa cell extract proteins (Homo sapiens, UniProt Q6L8Q7)
T8 construct: endogenous in cells; host or cells: HeLa cell extract
T8 sequence (Q6L8Q7 43-609): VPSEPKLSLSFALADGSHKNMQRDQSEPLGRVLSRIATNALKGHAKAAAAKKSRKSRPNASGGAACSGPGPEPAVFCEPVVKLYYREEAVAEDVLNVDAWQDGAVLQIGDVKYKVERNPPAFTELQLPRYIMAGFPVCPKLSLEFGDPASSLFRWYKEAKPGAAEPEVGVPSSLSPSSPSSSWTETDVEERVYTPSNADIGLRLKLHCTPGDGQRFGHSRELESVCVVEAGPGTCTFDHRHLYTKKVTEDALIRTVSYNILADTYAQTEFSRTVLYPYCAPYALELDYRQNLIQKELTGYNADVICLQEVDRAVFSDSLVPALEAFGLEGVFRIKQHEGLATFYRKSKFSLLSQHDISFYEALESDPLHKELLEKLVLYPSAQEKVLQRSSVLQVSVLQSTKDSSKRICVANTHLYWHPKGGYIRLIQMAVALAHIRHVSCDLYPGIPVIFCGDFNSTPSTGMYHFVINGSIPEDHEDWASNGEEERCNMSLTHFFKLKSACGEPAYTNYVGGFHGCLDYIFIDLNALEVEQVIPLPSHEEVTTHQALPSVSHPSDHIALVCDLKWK

[9] = molecular target: T9, HeLa cell extract proteins (Homo sapiens, UniProt Q8NBJ5)
T9 construct: endogenous in cells; host or cells: HeLa cell extract

[10] = molecular target: T10, HeLa cell extract proteins (Homo sapiens, UniProt P52888)
T10 construct: endogenous in cells; host or cells: HeLa cell extract
T10 sequence (P52888 whole entry): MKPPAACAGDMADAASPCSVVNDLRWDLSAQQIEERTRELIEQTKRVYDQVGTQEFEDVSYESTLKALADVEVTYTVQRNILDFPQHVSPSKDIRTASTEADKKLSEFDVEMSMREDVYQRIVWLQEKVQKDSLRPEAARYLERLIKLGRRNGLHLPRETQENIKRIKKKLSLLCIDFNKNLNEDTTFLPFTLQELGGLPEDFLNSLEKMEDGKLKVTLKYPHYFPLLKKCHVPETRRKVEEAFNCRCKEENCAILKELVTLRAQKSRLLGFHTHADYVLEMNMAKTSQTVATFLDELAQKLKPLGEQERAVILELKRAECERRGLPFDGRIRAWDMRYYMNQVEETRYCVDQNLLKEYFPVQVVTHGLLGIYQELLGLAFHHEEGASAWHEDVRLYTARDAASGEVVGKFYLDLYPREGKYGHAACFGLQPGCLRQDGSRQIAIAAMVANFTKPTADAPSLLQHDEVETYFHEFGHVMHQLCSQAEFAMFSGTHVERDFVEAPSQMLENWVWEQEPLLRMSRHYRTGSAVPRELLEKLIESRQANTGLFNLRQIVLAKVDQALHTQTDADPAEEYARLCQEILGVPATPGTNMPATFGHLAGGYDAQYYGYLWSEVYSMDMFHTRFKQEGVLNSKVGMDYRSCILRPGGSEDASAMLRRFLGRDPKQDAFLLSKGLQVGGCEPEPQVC

[11] = molecular target: T11, HeLa cell extract proteins (Homo sapiens, UniProt Q99805)
T11 construct: endogenous in cells; host or cells: HeLa cell extract
T11 sequence (Q99805 29-663): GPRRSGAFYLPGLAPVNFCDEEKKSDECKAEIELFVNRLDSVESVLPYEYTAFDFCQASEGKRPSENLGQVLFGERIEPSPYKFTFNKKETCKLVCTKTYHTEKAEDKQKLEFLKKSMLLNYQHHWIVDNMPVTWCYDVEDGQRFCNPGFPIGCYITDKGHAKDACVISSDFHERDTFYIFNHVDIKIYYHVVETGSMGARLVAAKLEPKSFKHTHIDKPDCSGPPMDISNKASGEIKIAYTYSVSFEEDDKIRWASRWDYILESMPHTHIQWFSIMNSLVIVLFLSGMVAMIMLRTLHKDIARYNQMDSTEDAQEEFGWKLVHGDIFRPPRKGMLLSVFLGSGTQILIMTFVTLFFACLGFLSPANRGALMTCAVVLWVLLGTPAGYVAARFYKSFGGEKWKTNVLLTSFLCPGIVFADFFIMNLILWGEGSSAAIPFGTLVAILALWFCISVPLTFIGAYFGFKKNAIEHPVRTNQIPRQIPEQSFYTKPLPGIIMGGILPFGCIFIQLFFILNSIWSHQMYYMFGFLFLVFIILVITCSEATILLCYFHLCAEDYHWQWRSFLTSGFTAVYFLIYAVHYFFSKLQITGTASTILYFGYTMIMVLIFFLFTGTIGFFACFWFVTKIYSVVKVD

[12] = molecular target: T12, HeLa cell extract proteins (Homo sapiens, UniProt Q9P2J5)
T12 construct: endogenous in cells; host or cells: HeLa cell extract
T12 sequence (Q9P2J5 whole entry): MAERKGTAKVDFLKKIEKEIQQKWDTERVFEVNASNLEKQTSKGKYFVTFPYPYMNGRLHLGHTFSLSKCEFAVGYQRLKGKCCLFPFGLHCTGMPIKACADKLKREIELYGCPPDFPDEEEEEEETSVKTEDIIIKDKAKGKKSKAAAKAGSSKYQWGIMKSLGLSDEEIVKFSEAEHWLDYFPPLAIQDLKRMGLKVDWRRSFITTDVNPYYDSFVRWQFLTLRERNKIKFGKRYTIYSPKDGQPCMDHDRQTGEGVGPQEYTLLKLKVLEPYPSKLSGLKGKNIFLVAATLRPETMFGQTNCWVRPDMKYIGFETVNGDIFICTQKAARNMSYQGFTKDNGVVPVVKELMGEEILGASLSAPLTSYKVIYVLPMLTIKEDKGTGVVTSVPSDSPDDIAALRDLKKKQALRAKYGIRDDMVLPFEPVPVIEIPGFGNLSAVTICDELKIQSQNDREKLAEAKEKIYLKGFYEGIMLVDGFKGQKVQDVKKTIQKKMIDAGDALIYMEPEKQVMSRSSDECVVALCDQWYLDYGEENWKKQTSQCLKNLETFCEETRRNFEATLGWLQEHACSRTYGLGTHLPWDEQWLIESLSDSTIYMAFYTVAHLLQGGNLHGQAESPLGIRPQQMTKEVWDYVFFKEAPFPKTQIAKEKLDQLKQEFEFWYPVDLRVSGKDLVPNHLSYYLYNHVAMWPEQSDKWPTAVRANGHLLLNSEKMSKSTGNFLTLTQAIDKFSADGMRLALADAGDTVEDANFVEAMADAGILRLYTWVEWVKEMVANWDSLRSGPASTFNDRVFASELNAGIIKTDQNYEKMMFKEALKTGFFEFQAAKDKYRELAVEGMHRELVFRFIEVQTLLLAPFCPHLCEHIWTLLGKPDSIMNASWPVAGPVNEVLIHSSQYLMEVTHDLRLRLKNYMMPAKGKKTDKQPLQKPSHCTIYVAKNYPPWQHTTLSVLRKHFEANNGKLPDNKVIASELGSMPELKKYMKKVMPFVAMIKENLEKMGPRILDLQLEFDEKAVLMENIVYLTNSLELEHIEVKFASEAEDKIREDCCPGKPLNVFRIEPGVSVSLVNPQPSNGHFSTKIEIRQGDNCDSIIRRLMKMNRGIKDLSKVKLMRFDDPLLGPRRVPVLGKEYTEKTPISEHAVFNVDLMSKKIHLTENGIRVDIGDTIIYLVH

[13] = molecular target: T13, HeLa cell extract proteins (Homo sapiens, UniProt Q9BW92)
T13 construct: endogenous in cells; host or cells: HeLa cell extract
T13 sequence (Q9BW92 1-718): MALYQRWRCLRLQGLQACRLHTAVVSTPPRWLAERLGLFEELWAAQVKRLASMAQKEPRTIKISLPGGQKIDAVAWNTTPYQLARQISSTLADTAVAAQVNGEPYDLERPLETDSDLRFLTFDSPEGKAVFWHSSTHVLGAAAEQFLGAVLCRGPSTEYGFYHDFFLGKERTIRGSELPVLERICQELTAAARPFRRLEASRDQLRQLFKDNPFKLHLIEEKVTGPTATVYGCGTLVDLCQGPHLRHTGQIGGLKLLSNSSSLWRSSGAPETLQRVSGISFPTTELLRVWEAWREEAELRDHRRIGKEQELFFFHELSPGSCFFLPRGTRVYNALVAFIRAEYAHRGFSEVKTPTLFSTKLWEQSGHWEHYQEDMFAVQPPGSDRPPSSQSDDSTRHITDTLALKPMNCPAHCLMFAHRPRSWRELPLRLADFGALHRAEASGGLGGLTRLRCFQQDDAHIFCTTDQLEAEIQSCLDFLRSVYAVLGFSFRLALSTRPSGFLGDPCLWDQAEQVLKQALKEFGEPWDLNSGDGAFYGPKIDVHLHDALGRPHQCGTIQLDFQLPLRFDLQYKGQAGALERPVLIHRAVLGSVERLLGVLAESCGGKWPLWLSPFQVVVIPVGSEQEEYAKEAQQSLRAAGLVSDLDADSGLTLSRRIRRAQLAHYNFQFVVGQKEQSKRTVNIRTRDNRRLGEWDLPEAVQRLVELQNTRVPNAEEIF

Row | SMILES | fold changes relative to vehicle control [1] | fold changes relative to vehicle control [2] | fold changes relative to vehicle control [3] | fold changes relative to vehicle control [4] | fold changes relative to vehicle control [5] | fold changes relative to vehicle control [6] | fold changes relative to vehicle control [7] | fold changes relative to vehicle control ([8]; HeLa, protein PDE12) | fold changes relative to vehicle control ([9]; HeLa, captured protein GLT25D1) | fold changes relative to vehicle control ([10]; protein THOP1, HeLa) | fold changes relative to vehicle control ([11]; HeLa, protein TM9SF2) | fold changes relative to vehicle control ([12]; HeLa, protein LARS) | fold changes relative to vehicle control ([13]; HeLa, protein TARS2) | further results
1 | Nc1nc2cccc(-c3ccccc3)c2n1Cc1ccc(Cl)c(Cl)c1 [compound 3] | 0.83 | 1.01 | 0.99 | 0.77 | 0.93 | 1.03 | 1 |  |  |  |  |  |  | 
2 | NCCOCCOCC(=O)Nc1nc2ncc(CNc3ccc(C(=O)NC(CCC(=O)O)C(=O)O)cc3)nc2c(=O)[nH]1 (stereo not drawn) [compound 6] |  |  |  |  |  |  |  | 1.1 | 0.93 | 1.16 | 0.84 | 1 | 1.13 | 
3 | Nc1nc2[nH]cc(CCc3ccc(C(=O)N[C@@H](CCC(=O)O)C(=O)O)cc3)c2c(=O)[nH]1 [PTX, pemetrexed] |  |  |  |  |  |  |  |  |  |  |  |  |  | fold changes relative to vehicle control [8]: 1.04; fold changes relative to vehicle control [9]: 0.83; fold changes relative to vehicle control [10]: 0.95; fold changes relative to vehicle control [11]: 0.76; fold changes relative to vehicle control [12]: 1.11; fold changes relative to vehicle control [13]: 0.87
4 | Nc1nc2c(c(=O)[nH]1)N(C=O)C(CNc1ccc(C(=O)N[C@@H](CCC(=O)O)C(=O)O)cc1)CN2 (stereo partly drawn) [LEU, leucovorin] |  |  |  |  |  |  |  | 0.93 | 0.95 | 0.87 | 0.74 | 1.04 | 0.91 | 
5 | CCCCCCOc1ccc(Cc2cnc(N)nc2N)cc1 [compound 1] | 1.2 | 1.04 | 1.11 | 0.83 | 1.12 | 0.95 | 0.92 |  |  |  |  |  |  | 
6 | NCCCNc1ccc(C(=O)NC(CCC(=O)O)C(=O)O)cc1 (stereo not drawn) [compound 7] |  |  |  |  |  |  |  | 1.34 | 0.97 | 0.83 | 0.82 | 1.13 | 1 | 
7 | CCCCCCOc1cccc(Cc2cnc(N)nc2N)c1 [compound 2] | 1.71 | 1.1 | 1.45 | 1.2 | 1.36 | 1.14 | 0.91 |  |  |  |  |  |  | 
